Where a name gives a salt, the structure may show the parent alone.
Experiments:
[1] = tested on: NAADP-evoked Ca^2+ release; type: biochemical, Strongylocentrotus purpuratus; details: for IC50: read-out: IC50 for inhibition of NAADP-evoked Ca2+ release; for 2° Screen (sea urchin) Ca^2+ release log(IC50): printed as log(IC50), negative values, molar implied, NAADP 70 nM
[2] = tested on: lysosomal Ca^2+ content, U2OS cells; assay: Counterscreen: GPN-evoked lysosomal Ca2+ release; type: cell-based, human; details: for Effect on GPN-mobilizable Ca2+ and LysoTracker (LTR) staining (in words) / Counterscreen (human cells) Ca^2+ release (% GPN): drug 30 μM; for Counterscreen (human cells) Ca^2+ release (% GPN): GPN 300 μM, peak fluo-4 F/F0; for activity at 30 µM: Homo sapiens, read-out: Counterscreen (human cells) Ca^2+ release (% GPN)
[3] = tested on: NAADP-evoked Ca^2+ release; assay: Primary screen of NAADP-evoked Ca2+ release in sea urchin egg homogenate; type: biochemical, Strongylocentrotus purpuratus; details: for 1° Screen (sea urchin) Ca^2+ release (% NAADP): peak NAADP-evoked Ca2+ release as % of control NAADP response: compound 25 μM, 6 min preincubation, NAADP 167 nM; for Effect on NAADP-evoked Ca2+ signal in primary screen (in words): 25 μM
[4] = tested on: specific ^32P-NAADP binding in sea urchin egg homogenates; assay: 32P-NAADP radioligand binding in sea urchin egg homogenate; set-up: species or system Strongylocentrotus purpuratus; details: drug 30 μM, specific 32P-NAADP binding relative to vehicle
[5] = tested on: lysosomal labelling (LysoTracker Red), U2OS cells; assay: Counterscreen: LysoTracker Red; type: cell-based, human; details: for Counterscreen (human cells) LTR signal (% control): drug 30 μM, minimum LTR F/F0 before GPN; for activity at 30 µM: Homo sapiens, read-out: Counterscreen (human cells) LTR signal (% control)
IP3-evoked Ca^2+ release = type: biochemical, Strongylocentrotus purpuratus
[6] = tested on: cADPR-evoked Ca^2+ release; type: biochemical, Strongylocentrotus purpuratus
[7] = tested on: NAADP-evoked Ca^2+ signals; details: cited from earlier work
Ebola = details: mouse, in vivo; cited from earlier work

COc1ccc([C@H]2N[C@H](C(=O)O)Cc3c2[nH]c2ccccc32)cc1CN1CCN(c2ccccc2F)CC1 (relative stereo) [trans-ned-19, trans-Ned-19]
IC50 [1]: 156 ± 3 µM

CCS(=O)(=O)Nc1cccc(C(=C2CCCCC2)c2cnc[nH]2)c1 [A-315456]
Effect on GPN-mobilizable Ca2+ and LysoTracker (LTR) staining (in words) [2]: no effect
Counterscreen (human cells) Ca^2+ release (% GPN) [2]: 97.1 ± 3%
1° Screen (sea urchin) Ca^2+ release (% NAADP): peak NAADP-evoked Ca2+ release as % of control NAADP response [3]: 13.0 ± 5.0%
2° Screen (sea urchin) NAADP binding (% inhibition) [4]: 8.4 ± 1.2%
2° Screen (sea urchin) Ca^2+ release log(IC50) [1]: −4.44 ± 0.01
Counterscreen (human cells) LTR signal (% control) [5]: 95.2 ± 4%

CN1CCC[C@@H]1CCO[C@](C)(c1ccccc1)c1ccc(Cl)cc1 [Clemastine fumarate, clemastine fumarate]
activity at 30 µM [2]: 69.5 ± 13%
activity at 30 µM [5]: 70.9 ± 15%

COc1cc(C(=O)OCCCN2CCCN(CCCOC(=O)c3cc(OC)c(OC)c(OC)c3)CC2)cc(OC)c1OC [Dilazep hydrochloride, dilazep hydrochloride]
activity at 30 µM [2]: 65.1 ± 5%
1° Screen (sea urchin) Ca^2+ release (% NAADP): peak NAADP-evoked Ca2+ release as % of control NAADP response [3]: 16.0 ± 3.0%
2° Screen (sea urchin) NAADP binding (% inhibition) [4]: −10.9 ± 8.1%
2° Screen (sea urchin) Ca^2+ release log(IC50) [1]: −5.03 ± 0.11
activity at 30 µM [5]: 69.6 ± 9%

COc1ccc2cc1Oc1ccc(cc1)C[C@H]1c3cc(c(OC)cc3CCN1C)Oc1c(O)c(OC)cc3c1[C@H](C2)N(C)CC3 [Fangchinoline]
Peak amplitude of NAADP-evoked Ca2+ release, % of control response [1]: 47 ± 2%
Effect on size of IP3-evoked Ca2+ transients (in words) (IP3-evoked Ca^2+ release): lesser effects
Effect on size of cADPR-evoked Ca2+ transients (in words) [6]: lesser effects

OCCN1CCN(CCCN2c3ccccc3Sc3ccc(C(F)(F)F)cc32)CC1 [Fluphenazine dihydrochloride, fluphenazine dihydrochloride]
activity at 30 µM [2]: 67.6 ± 14%
activity at 30 µM [5]: 69.8 ± 10%

Cl.Cl.c1ccc(CCCN2CCN(CCOC(c3ccccc3)c3ccccc3)CC2)cc1 [GBR-12935 dihydrochloride]
Counterscreen (human cells) Ca^2+ release (% GPN) [2]: 61.1 ± 15%
1° Screen (sea urchin) Ca^2+ release (% NAADP): peak NAADP-evoked Ca2+ release as % of control NAADP response [3]: 10.7 ± 7.0%
2° Screen (sea urchin) NAADP binding (% inhibition) [4]: 3.4 ± 3.3%
2° Screen (sea urchin) Ca^2+ release log(IC50) [1]: −4.90 ± 0.13
Counterscreen (human cells) LTR signal (% control) [5]: 67.5 ± 11%

Cl.Fc1ccc(C(OCCCc2c[nH]cn2)c2ccc(F)cc2)cc1 [IPFME, 3-(1H-Imidazol-4-yl)propyl di(p-fluorophenyl)methyl ether hydrochloride]
activity at 30 µM [2]: 51.3 ± 18%
1° Screen (sea urchin) Ca^2+ release (% NAADP): peak NAADP-evoked Ca2+ release as % of control NAADP response [3]: 13.7 ± 11%
2° Screen (sea urchin) NAADP binding (% inhibition) [4]: 2.9 ± 2.1%
2° Screen (sea urchin) Ca^2+ release log(IC50) [1]: −5.22 ± 0.08
activity at 30 µM [5]: 56.9 ± 8%

CC1(C)C(=O)N(CCN2CCC(C(=O)c3ccc(F)cc3)CC2)c2ccccc21.Cl [LY-310,762 hydrochloride]
Counterscreen (human cells) Ca^2+ release (% GPN) [2]: 108.1 ± 11%
1° Screen (sea urchin) Ca^2+ release (% NAADP): peak NAADP-evoked Ca2+ release as % of control NAADP response [3]: 16.3 ± 8.7%
2° Screen (sea urchin) NAADP binding (% inhibition) [4]: −2.8 ± 3.8%
2° Screen (sea urchin) Ca^2+ release log(IC50) [1]: −4.75 ± 0.05
Counterscreen (human cells) LTR signal (% control) [5]: 90.2 ± 8%

CCN(CC)CC#CCOC(=O)C(O)(c1ccccc1)C1CCCCC1 (stereo not drawn) [Oxybutynin Chloride, oxybutynin chloride]
activity at 30 µM [2]: 62.1 ± 4%
activity at 30 µM [5]: 59.2 ± 9%

CCCCCCCCCC(=O)NC(CN1CCOCC1)C(O)c1ccccc1.Cl (stereo not drawn) [PDMP, PDMP hydrochloride]
Effect on GPN-mobilizable Ca2+ and LysoTracker (LTR) staining (in words) [2]: no effect
Counterscreen (human cells) Ca^2+ release (% GPN) [2]: 91.4 ± 2%
1° Screen (sea urchin) Ca^2+ release (% NAADP): peak NAADP-evoked Ca2+ release as % of control NAADP response [3]: 18.3 ± 17%
2° Screen (sea urchin) NAADP binding (% inhibition) [4]: 6.0 ± 0.5%
2° Screen (sea urchin) Ca^2+ release log(IC50) [1]: −4.80 ± 0.05
Counterscreen (human cells) LTR signal (% control) [5]: 91.6 ± 13%

Cc1nc(N=Nc2ccc(S(=O)(=O)[O-])cc2S(=O)(=O)[O-])c(COP(=O)([O-])[O-])c(C=O)c1O.[Na+].[Na+].[Na+].[Na+] [PPADS, PPADS tetrasodium salt]
Counterscreen (human cells) Ca^2+ release (% GPN) [2]: 91.3 ± 16%
2° Screen (sea urchin) NAADP binding (% inhibition) [4]: 84.8 ± 1.6%
2° Screen (sea urchin) Ca^2+ release log(IC50) [1]: −5.27 ± 0.01
IC50 [1]: 5.4 ± 0.2 µM
Counterscreen (human cells) LTR signal (% control) [5]: 92.1 ± 7%

Cc1nc(N=Nc2cc(S(=O)(=O)O)c3cc([N+](=O)[O-])cc(S(=O)(=O)O)c3c2)c(COP(=O)(O)O)c(C=O)c1O [PPNDS]
1° Screen (sea urchin) Ca^2+ release (% NAADP): peak NAADP-evoked Ca2+ release as % of control NAADP response [3]: 22 ± 4%

CN1CCN(CCCN2c3ccccc3Sc3ccc(Cl)cc32)CC1 [Prochlorperazine dimaleate, prochlorperazine dimaleate salt]
activity at 30 µM [2]: 20.2 ± 17%
activity at 30 µM [5]: 24.3 ± 14%

CC(=O)SCC(Cc1ccccc1)C(=O)NCC(=O)OCc1ccccc1 (stereo not drawn) [Racecadotril, racecadotril]
activity at 30 µM [2]: 110 ± 4%
Effect on GPN-mobilizable Ca2+ and LysoTracker (LTR) staining (in words) [2]: no effect
1° Screen (sea urchin) Ca^2+ release (% NAADP): peak NAADP-evoked Ca2+ release as % of control NAADP response [3]: 11.5 ± 6.0%
2° Screen (sea urchin) NAADP binding (% inhibition) [4]: −8.3 ± 0.2%
2° Screen (sea urchin) Ca^2+ release log(IC50) [1]: −5.80 ± 0.03
IC50 [1]: 1.6 ± 0.1 µM
activity at 30 µM [5]: 92.8 ± 3%

COc1ccc(CCCOC(Cn2ccnc2)c2ccc(OC)cc2)cc1 (stereo not drawn) [SKF 96,365, SKF 96365 hydrochloride]
activity at 30 µM [2]: 98.1 ± 6%
Effect on GPN-mobilizable Ca2+ and LysoTracker (LTR) staining (in words) [2]: no effect
1° Screen (sea urchin) Ca^2+ release (% NAADP): peak NAADP-evoked Ca2+ release as % of control NAADP response [3]: 6.3 ± 4.5%
2° Screen (sea urchin) NAADP binding (% inhibition) [4]: −5.3 ± 5.7%
2° Screen (sea urchin) Ca^2+ release log(IC50) [1]: −5.29 ± 0.06
activity at 30 µM [5]: 98.5 ± 5%

OCc1cc(C(O)CNCCCCCCOCCCCc2ccccc2)ccc1O (stereo not drawn) [Salmeterol xinafolate, salmeterol xinafoate]
activity at 30 µM [2]: 97.4 ± 5%
1° Screen (sea urchin) Ca^2+ release (% NAADP): peak NAADP-evoked Ca2+ release as % of control NAADP response [3]: 18.7 ± 12%
2° Screen (sea urchin) NAADP binding (% inhibition) [4]: −2.3 ± 13.6%
2° Screen (sea urchin) Ca^2+ release log(IC50) [1]: −4.94 ± 0.04
activity at 30 µM [5]: 97.3 ± 7%

CCN(CC)CCCCCCCCOC(=O)c1cc(OC)c(OC)c(OC)c1.Cl [TMB-8 hydrochloride]
Counterscreen (human cells) Ca^2+ release (% GPN) [2]: 68.8 ± 5%
1° Screen (sea urchin) Ca^2+ release (% NAADP): peak NAADP-evoked Ca2+ release as % of control NAADP response [3]: 18.3 ± 3.2%
2° Screen (sea urchin) NAADP binding (% inhibition) [4]: −16.6 ± 10.3%
2° Screen (sea urchin) Ca^2+ release log(IC50) [1]: −5.12 ± 0.06
Counterscreen (human cells) LTR signal (% control) [5]: 71.8 ± 8%

CSc1ccc2c(c1)N(CCC1CCCCN1C)c1ccccc1S2 (stereo not drawn) [Thioridazine hydrochloride, thioridazine hydrochloride]
activity at 30 µM [2]: 20.5 ± 12%
activity at 30 µM [5]: 26.2 ± 18%

CN1CCN(CCCN2c3ccccc3Sc3ccc(C(F)(F)F)cc32)CC1 [Trifluoperazine dihydrochloride, trifluoperazine dihydrochloride]
activity at 30 µM [2]: 5.8 ± 11%
1° Screen (sea urchin) Ca^2+ release (% NAADP): peak NAADP-evoked Ca2+ release as % of control NAADP response [3]: 19.7 ± 15%
2° Screen (sea urchin) NAADP binding (% inhibition) [4]: −13.7 ± 13.7%
2° Screen (sea urchin) Ca^2+ release log(IC50) [1]: −5.13 ± 0.10
activity at 30 µM [5]: 15.2 ± 9%

CO/C1=C\C(C)=C\[C@@H](C)[C@@H](O)[C@@H](C)C/C(C)=C/C=C/[C@H](OC)[C@@H]([C@@H](C)[C@@H](O)[C@H](C)[C@@]2(O)C[C@@H](O)[C@H](C)[C@@H](C(C)C)O2)OC1=O [bafilomycin, bafilomycin A1]
Effect on GPN-mobilizable Ca2+ and LysoTracker (LTR) staining (in words) [2]: penetrant effects

COc1ccc([C@@H]2Sc3ccccc3N(CCN(C)C)C(=O)[C@@H]2OC(C)=O)cc1 [diltiazem]
Concentration acting as TPC pore blocker [7]: < 10 u M

O=C1C[C@@H](c2ccc(O)cc2)Oc2cc(O)cc(O)c21 [naringenin]
IC50 [7]: ~180 µM

COC(=O)C1=C(C)NC(C)=C(C(=O)OC)C1c1ccccc1[N+](=O)[O-] [nifedipine]
Concentration acting as TPC pore blocker [7]: < 10 u M

O=C1NC(=O)C(c2ccccc2)(c2ccccc2)N1 [phenytoin]
Effect on NAADP-evoked Ca2+ signal in primary screen (in words) [3]: potentiation

COc1ccc2cc1Oc1ccc(cc1)C[C@H]1c3cc(c(OC)cc3CCN1C)Oc1c(OC)c(OC)cc3c1[C@H](C2)N(C)CC3 [tetrandrine]
Concentration range acting as TPC pore blocker (in words) [7]: sub-micromolar range
Survival (Ebola): improved survival

C/C=C(/C)C(=O)O[C@H]1C(C)=C2[C@H]([C@@H]1OC(=O)CCCCCCC)[C@@](C)(OC(C)=O)C[C@H](OC(=O)CCC)[C@@]1(O)[C@H]2OC(=O)[C@@]1(C)O [thapsigargin]
Effect on NAADP-evoked Ca2+ signal in primary screen (in words) [3]: did not abrogate NAADP responsiveness

ST-148
Counterscreen (human cells) Ca^2+ release (% GPN) [2]: 66.6 ± 5%
1° Screen (sea urchin) Ca^2+ release (% NAADP): peak NAADP-evoked Ca2+ release as % of control NAADP response [3]: 16.7 ± 3.5%
2° Screen (sea urchin) NAADP binding (% inhibition) [4]: 0.2 ± 4.3%
2° Screen (sea urchin) Ca^2+ release log(IC50) [1]: −4.80 ± 0.08
Counterscreen (human cells) LTR signal (% control) [5]: 69.8 ± 13%
